Earlier results as cited in patent US7838668B2, “Method for crystallizing sucralose” (JK Sucralose Inc., priority 2006, dated 2010).

Conditions: relative to sucrose; background statement, no test described

OC[C@H]1O[C@H](O[C@]2(CCl)O[C@H](CCl)[C@@H](O)[C@@H]2O)[C@H](O)[C@@H](O)[C@H]1Cl [sucralose]
sweetness: 600 times of sucrose
